Literature values as cited in US20150346185A1, “DIAGNOSIS OF CYSTIC FIBROSIS” (priority 2012, published 2015).

Target: T1, Na+ channel ENaC (Homo sapiens, UniProt P37088+P51168+P51170)
T1 construct: from tissue; host or cells: human nasal epithelium (healthy individuals and cystic fibrosis patients)
Details: healthy patients, infusion of amiloride

T1 sequence (P51168 whole entry): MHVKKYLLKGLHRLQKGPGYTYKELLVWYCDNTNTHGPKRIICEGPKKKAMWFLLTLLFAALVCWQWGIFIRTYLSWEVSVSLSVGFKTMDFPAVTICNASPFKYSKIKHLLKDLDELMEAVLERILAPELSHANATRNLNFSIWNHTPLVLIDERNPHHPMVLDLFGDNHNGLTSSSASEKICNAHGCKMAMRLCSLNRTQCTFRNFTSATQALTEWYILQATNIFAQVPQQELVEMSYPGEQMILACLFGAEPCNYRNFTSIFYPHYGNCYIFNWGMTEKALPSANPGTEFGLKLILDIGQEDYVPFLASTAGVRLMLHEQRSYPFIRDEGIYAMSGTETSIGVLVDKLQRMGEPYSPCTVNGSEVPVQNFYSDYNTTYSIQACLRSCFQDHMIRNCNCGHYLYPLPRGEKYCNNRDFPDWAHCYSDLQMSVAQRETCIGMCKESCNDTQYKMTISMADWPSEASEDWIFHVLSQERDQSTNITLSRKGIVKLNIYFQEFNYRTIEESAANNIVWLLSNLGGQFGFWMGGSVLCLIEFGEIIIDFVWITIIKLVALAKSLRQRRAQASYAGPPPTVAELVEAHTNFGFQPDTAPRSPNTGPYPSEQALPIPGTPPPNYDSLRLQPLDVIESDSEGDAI
T1 sequence (P37088 whole entry): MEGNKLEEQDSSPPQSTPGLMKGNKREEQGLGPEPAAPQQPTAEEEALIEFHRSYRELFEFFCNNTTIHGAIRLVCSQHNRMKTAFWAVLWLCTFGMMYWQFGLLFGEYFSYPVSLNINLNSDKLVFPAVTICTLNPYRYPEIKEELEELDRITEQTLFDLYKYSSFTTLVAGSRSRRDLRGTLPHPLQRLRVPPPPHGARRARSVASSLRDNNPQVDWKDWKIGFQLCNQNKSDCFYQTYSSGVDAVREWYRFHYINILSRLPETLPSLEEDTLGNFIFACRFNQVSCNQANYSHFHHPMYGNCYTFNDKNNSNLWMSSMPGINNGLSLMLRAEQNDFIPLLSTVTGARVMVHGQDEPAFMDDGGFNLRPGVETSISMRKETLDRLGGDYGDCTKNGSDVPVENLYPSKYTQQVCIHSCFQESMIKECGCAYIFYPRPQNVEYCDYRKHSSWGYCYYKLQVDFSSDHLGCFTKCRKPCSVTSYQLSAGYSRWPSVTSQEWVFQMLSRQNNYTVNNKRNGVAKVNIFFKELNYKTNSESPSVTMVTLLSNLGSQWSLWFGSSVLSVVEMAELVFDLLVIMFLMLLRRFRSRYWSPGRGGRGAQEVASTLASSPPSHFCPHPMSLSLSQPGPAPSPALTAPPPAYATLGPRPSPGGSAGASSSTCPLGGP
T1 sequence (P51170 whole entry): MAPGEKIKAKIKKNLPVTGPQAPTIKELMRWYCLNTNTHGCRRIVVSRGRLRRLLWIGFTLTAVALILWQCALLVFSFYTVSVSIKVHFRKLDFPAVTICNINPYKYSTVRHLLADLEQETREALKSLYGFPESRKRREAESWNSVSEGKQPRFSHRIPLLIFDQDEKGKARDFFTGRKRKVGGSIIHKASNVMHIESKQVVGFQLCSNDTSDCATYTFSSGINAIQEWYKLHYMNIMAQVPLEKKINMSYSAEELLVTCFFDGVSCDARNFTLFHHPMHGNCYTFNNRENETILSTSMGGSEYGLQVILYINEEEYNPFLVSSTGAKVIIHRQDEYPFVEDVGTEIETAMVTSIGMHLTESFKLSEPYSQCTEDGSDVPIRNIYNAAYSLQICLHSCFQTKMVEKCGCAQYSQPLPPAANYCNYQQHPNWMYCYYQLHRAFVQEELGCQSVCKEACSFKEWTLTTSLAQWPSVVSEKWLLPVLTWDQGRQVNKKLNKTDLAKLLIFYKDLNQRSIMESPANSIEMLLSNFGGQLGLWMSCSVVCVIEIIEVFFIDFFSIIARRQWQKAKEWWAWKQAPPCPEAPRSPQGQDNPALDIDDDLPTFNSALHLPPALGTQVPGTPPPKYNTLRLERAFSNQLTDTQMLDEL

In the case of `N=C(N)NC(=O)c1nc(Cl)c(N)nc1N` [amiloride], the “reduction of nasal transepithelial potential difference” value is given as 55%.
